Experimental data from patent US20080176932A1, “Pharmaceutical Compositions Containing Baicalein And Baicalin With Synergistic Effect In Tumor Treatment” (priority 2005, published 2008).
Read-outs that look alike come from different tables or passages of the source.

Experiments:
[1] = test system: human liver cancer cell line HepG2; test: MTT growth inhibition, baicalein and baicalin single or combination; format: cell-based
From the text: The results of experiments with human liver cancer cell line HepG2 are illustrated in Table 1;

[2] = test system: Human colon cancer cell line HCT116; test: as above; format: cell-based
From the text: Human colon cancer cell line HCT116—Table 2;

[3] = test system: Human hung cancer cell line A549; test: as above; format: cell-based
From the text: Human hung cancer cell line A549—Table 3;

[4] = test system: Human gastric cancer cell line MKN28; test: as above; format: cell-based
From the text: Human gastric cancer cell line MKN28—Table 4;

[5] = test system: Human leukemia cell line HL60; test: as above; format: cell-based
From the text: Human leukemia cell line HL60—Table 8.

[6] = test system: Murine melanoma cell line B 16; test: Solid tumor transplant model, baicalein and baicalin; format: in vivo; details: B16 mice, B 30 mg/kg i.p., day 1-10
Procedure: (§1) C57BL/6 female mice (weight approximately 20 g) were used in this study. Murine melanoma cell line B 16 cells, 2×10^6 tumor cells were implanted s.c. into the armpit of each mice after two passenges in vitro cultured. On the next day after implantation, mice were randomly grouped at 10 per group and received 0.1 ml/10 g weight of the drugs. […] The number of mice of each group was 10. Mice were weighed before and post the treatment. Animals were killed on day 15, and the tumors were removed and weighted.

L1210 cells [7] = format: in vivo; details: B 30 mg/kg i.p., day 1-10
Procedure: (§2) L1210 cells on the growth phase were injected at 1×10^5 cells via I.P. into BDF1 female mice (weight approximately 20 g). The next day of implantation, mice were grouped, and received an injection of 0.1 ml/10 g weight of the drug. […] The number of mice of each group was 10. Mice were weighed before and after the treatment. Survival time of each mouse was recorded. The results of changes in increasing of life span of mice were used in assessment of response. The increase of life span was determined as; increase of life span rate=(median survival time of treated animals/median survival time of control animals−1)×100%, the data were analyzed by t-test.

[8] = test system: human liver cancer cell line HepG2; test: MTT growth inhibition, baicalein and scutellarin single or combination; format: cell-based
[9] = test system: Human colon cancer cell line HCT116; test: as above; format: cell-based
[10] = test system: Human hung cancer cell line A549; test: as above; format: cell-based
[11] = test system: Human gastric cancer cell line MKN28; test: as above; format: cell-based
[12] = test system: Human breast cancer cell line MCF-7; test: as above; format: cell-based
Procedure: (§3) Cells were seeded onto 96-well plate at 5×10^3 cells/well, and grown in culture medium containing 10% fetal bovine serum (FBS). […] The viable cell growth was determined by MTT assay after 72-h continuous exposure.
(§4) A CI below 1 is an indication of synergy, while a CI equal to 1 represents addition, and a CI above 1 indicates antagonism.

[13] = test system: Human esophagus cancer cell line TE2; test: as above; format: cell-based
Procedure: as §3, §4

[14] = test system: Human prostate cancer cell line PC3; test: as above; format: cell-based
Procedure: as §3, §4

[15] = test system: Human leukemia cell line HL60; test: as above; format: cell-based
[16] = test system: Murine melanoma cell line B 16; test: Solid tumor transplant model, baicalein and scutellarin; format: in vivo, C57BL/6 female mice; details: B16 mice, B 30 mg/kg i.p., day 1-10
Procedure: as §1, with “0.1ml/10” for “0.1 ml/10”

L1210 cells [17] = format: in vivo; details: B 30 mg/kg i.p., day 1-10; remark: listed apart in the source
Procedure: as §2

[18] = test system: Human esophagus cancer cell line TE2
[19] = test system: Human breast cancer cell line MCF-7
[20] = test system: Human prostate cancer cell line PC3

O=c1cc(-c2ccccc2)oc2cc(O)c(O)c(O)c12 [B, baicalein]
Inhibition of cell growth (%) ([1]; single dose 2.5 μm): 7.4 ± 2%
Inhibition of cell growth (%) ([1]; single dose 5 μm): 34.93 ± 3%
Inhibition of cell growth (%) ([1]; single dose 10 μm): 50.2 ± 3%
Inhibition of cell growth (%) ([1]; single dose 20 μm): 58.5 ± 2.5%
Inhibition of cell growth (%) ([1]; single dose 40 μm): 89.18 ± 2%
Inhibition of cell growth (%) ([2]; single dose 2.5 μm): 5.8 ± 2%
Inhibition of cell growth (%) ([2]; single dose 5 μm): 20.5 ± 3%
Inhibition of cell growth (%) ([2]; single dose 10 μm): 29.2 ± 3%
Inhibition of cell growth (%) ([2]; single dose 20 μm): 41 ± 2.7%
Inhibition of cell growth (%) ([2]; single dose 40 μm): 89.15 ± 3%
Inhibition of cell growth (%) ([3]; single dose 2.5 μm): 13.5 ± 4%
Inhibition of cell growth (%) ([3]; single dose 5 μm): 17.18 ± 3%
Inhibition of cell growth (%) ([3]; single dose 10 μm): 39.2 ± 2%
Inhibition of cell growth (%) ([3]; single dose 20 μm): 63.85 ± 3.2%
Inhibition of cell growth (%) ([3]; single dose 40 μm): 96.41 ± 2%
Inhibition of cell growth (%) ([4]; single dose 2.5 μm): 7.7 ± 3%
Inhibition of cell growth (%) ([4]; single dose 5 μm): 37.11 ± 2.9%
Inhibition of cell growth (%) ([4]; single dose 10 μm): 53 ± 3.2%
Inhibition of cell growth (%) ([4]; single dose 20 μm): 58 ± 2%
Inhibition of cell growth (%) ([4]; single dose 40 μm): 77 ± 3%
Inhibition of cell growth (%) ([5]; single dose 2.5 μm): 6.5 ± 2%
Inhibition of cell growth (%) ([5]; single dose 5 μm): 21.8 ± 3%
Inhibition of cell growth (%) ([5]; single dose 10 μm): 41.32 ± 2.7%
Inhibition of cell growth (%) ([5]; single dose 20 μm): 67.6 ± 3.2%
Inhibition of cell growth (%) ([5]; single dose 40 μm): 86.77 ± 3.3%
Final Tumor WT. (g) Mean ± SD ([6]; day 15): 1.72 ± 0.09 g
Tumor Growth Inhibition % ([6]; day 15): 21.1%
Weight Change % [6]: <5%
Number of mice Surviving through 15 days/total number (L1210 cells [7]): 10/10
ILS(%) increase of life span (L1210 cells [7]; L1210 mice): 31.6%
Inhibition of cell growth (%) ([8]; single dose 2.5 μm): 7.35 ± 2.2%
Inhibition of cell growth (%) ([8]; single dose 5 μm): 32.7 ± 2.3%
Inhibition of cell growth (%) ([8]; single dose 10 μm): 49.8 ± 2.1%
Inhibition of cell growth (%) ([8]; single dose 20 μm): 58.5 ± 1.2%
Inhibition of cell growth (%) ([8]; single dose 40 μm): 90.18 ± 2.5%
Inhibition of cell growth (%) ([9]; single dose 2.5 μm): 5.8 ± 2%
Inhibition of cell growth (%) ([9]; single dose 5 μm): 10.5 ± 2.3%
Inhibition of cell growth (%) ([9]; single dose 10 μm): 29.2 ± 2.7%
Inhibition of cell growth (%) ([9]; single dose 20 μm): 47 ± 3.1%
Inhibition of cell growth (%) ([9]; single dose 40 μm): 91.15 ± 2.5%
Inhibition of cell growth (%) ([10]; single dose 2.5 μm): 10.55 ± 1.2%
Inhibition of cell growth (%) ([10]; single dose 5 μm): 17.19 ± 2.2%
Inhibition of cell growth (%) ([10]; single dose 10 μm): 40.8 ± 3.2%
Inhibition of cell growth (%) ([10]; single dose 20 μm): 62.5 ± 2%
Inhibition of cell growth (%) ([10]; single dose 40 μm): 90.18 ± 2.1%
Inhibition of cell growth (%) ([11]; single dose 2.5 μm): 16.5 ± 1.1%
Inhibition of cell growth (%) ([11]; single dose 5 μm): 27.7 ± 2.1%
Inhibition of cell growth (%) ([11]; single dose 10 μm): 42.8 ± 2.3%
Inhibition of cell growth (%) ([11]; single dose 20 μm): 65.6 ± 3%
Inhibition of cell growth (%) ([11]; single dose 40 μm): 80.21 ± 2.5%
Inhibition of cell growth (%) ([12]; single dose 2.5 μm): 0.8 ± 2%
Inhibition of cell growth (%) ([12]; single dose 5 μm): 13.02 ± 2.5%
Inhibition of cell growth (%) ([12]; single dose 10 μm): 51.02 ± 2.2%
Inhibition of cell growth (%) ([12]; single dose 20 μm): 64.35 ± 2.2%
Inhibition of cell growth (%) ([12]; single dose 40 μm): 93 ± 2.5%
Inhibition of cell growth (%) ([13]; single dose 2.5 μm): 5 ± 2%
Inhibition of cell growth (%) ([13]; single dose 5 μm): 16.8 ± 1.2%
Inhibition of cell growth (%) ([13]; single dose 10 μm): 38.4 ± 2.1%
Inhibition of cell growth (%) ([13]; single dose 20 μm): 66.85 ± 2%
Inhibition of cell growth (%) ([13]; single dose 40 μm): 83.1 ± 2.1%
Inhibition of cell growth (%) ([14]; single dose 2.5 μm): 7.2 ± 5%
Inhibition of cell growth (%) ([14]; single dose 5 μm): 22.8 ± 6%
Inhibition of cell growth (%) ([14]; single dose 10 μm): 50.9 ± 5%
Inhibition of cell growth (%) ([14]; single dose 20 μm): 69.9 ± 5%
Inhibition of cell growth (%) ([14]; single dose 40 μm): 92.9 ± 7%
Inhibition of cell growth (%) ([15]; single dose 2.5 μm): 7.5 ± 2.7%
Inhibition of cell growth (%) ([15]; single dose 5 μm): 22.7 ± 2.2%
Inhibition of cell growth (%) ([15]; single dose 10 μm): 41.8 ± 2.7%
Inhibition of cell growth (%) ([15]; single dose 20 μm): 60.6 ± 3.2%
Inhibition of cell growth (%) ([15]; single dose 40 μm): 89.18 ± 2.1%
Final Tumor WT. (g) Mean ± SD ([16]; day 15): 1.72 ± 0.09 g
Tumor Growth Inhibition % ([16]; day 15): 21.1%
Number of mice through 15 days/total number [16]: 10/10
Weight Change % [16]: <5%
Number of mice Through surviving 15 days/total number (L1210 cells [17]): 10/10
ILS(%) increase of life span (L1210 cells [17]; L1210 mice): 31.6%
Inhibition of cell growth (%) ([18]; single dose 2.5 μm): 5.5 ± 1%
Inhibition of cell growth (%) ([18]; single dose 5 μm): 17.2 ± 2.8%
Inhibition of cell growth (%) ([18]; single dose 10 μm): 28 ± 2%
Inhibition of cell growth (%) ([18]; single dose 20 μm): 57.9 ± 2.1%
Inhibition of cell growth (%) ([18]; single dose 40 μm): 85.2 ± 2.3%
Inhibition of cell growth (%) ([19]; single dose 2.5 μm): 7.2 ± 2%
Inhibition of cell growth (%) ([19]; single dose 5 μm): 27.55 ± 2%
Inhibition of cell growth (%) ([19]; single dose 10 μm): 51 ± 3%
Inhibition of cell growth (%) ([19]; single dose 20 μm): 71.77 ± 2.5%
Inhibition of cell growth (%) ([19]; single dose 40 μm): 90.5 ± 2.5%
Inhibition of cell growth (%) ([20]; single dose 2.5 μm): 7.2 ± 5%
Inhibition of cell growth (%) ([20]; single dose 5 μm): 22.8 ± 6%
Inhibition of cell growth (%) ([20]; single dose 10 μm): 50.9 ± 5%
Inhibition of cell growth (%) ([20]; single dose 20 μm): 69.9 ± 5%
Inhibition of cell growth (%) ([20]; single dose 40 μm): 92.9 ± 7%
